SMILES strings stand for the structures. Where two headings read alike, the source gives them in different places.

Consider 9 molecules from article PMC6263802 (Journal of natural products, 2018).

The target in experiment [1] is hAChE (Homo sapiens, UniProt P22303). Description: Inhibition of human acetylcholinesterase with acetylthiocholine. The class given is biochemical. To be noted: for inhibition at 10 µM: read-out: hAChE % Inhibition at 10μM.
The target in experiment [2] is hBChE (Homo sapiens, UniProt P06276). Description: Inhibition of human butyrylcholinesterase with butyrylthiocholine. The class given is biochemical. To be noted: for inhibition at 10 µM: read-out: hBChE % Inhibition at 10μM.
The target of experiment [3] is T1, hCE1 (human liver CE; CES1) (Homo sapiens, UniProt P23141).
T1 sequence (P23141 18-563 limits assumed): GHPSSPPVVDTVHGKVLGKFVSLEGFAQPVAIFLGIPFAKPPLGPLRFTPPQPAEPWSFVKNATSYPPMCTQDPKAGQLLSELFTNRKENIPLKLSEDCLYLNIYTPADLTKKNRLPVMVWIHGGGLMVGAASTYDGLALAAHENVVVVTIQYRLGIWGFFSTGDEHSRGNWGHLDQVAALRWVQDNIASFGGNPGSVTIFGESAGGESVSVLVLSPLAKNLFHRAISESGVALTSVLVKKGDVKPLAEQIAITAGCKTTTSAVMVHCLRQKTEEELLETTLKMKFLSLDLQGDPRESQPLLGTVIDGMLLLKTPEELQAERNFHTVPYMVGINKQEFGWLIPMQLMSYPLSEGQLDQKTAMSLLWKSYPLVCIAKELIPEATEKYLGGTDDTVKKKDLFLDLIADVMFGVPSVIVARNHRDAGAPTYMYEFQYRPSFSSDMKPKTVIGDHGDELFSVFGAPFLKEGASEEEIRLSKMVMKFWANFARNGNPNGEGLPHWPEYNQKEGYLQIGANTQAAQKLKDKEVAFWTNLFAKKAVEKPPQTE
Description: Inhibition of hCE1 with o-nitrophenyl acetate. The class given is biochemical. To be noted: for hCE1 (o-NPA) Fold increase in potency: compared to the parent tanshinone.

Experiment [4] has as its target T2, hiCE (human intestinal CE; CES2) (Homo sapiens, UniProt O00748).
T2 sequence (O00748 27-555 limits assumed): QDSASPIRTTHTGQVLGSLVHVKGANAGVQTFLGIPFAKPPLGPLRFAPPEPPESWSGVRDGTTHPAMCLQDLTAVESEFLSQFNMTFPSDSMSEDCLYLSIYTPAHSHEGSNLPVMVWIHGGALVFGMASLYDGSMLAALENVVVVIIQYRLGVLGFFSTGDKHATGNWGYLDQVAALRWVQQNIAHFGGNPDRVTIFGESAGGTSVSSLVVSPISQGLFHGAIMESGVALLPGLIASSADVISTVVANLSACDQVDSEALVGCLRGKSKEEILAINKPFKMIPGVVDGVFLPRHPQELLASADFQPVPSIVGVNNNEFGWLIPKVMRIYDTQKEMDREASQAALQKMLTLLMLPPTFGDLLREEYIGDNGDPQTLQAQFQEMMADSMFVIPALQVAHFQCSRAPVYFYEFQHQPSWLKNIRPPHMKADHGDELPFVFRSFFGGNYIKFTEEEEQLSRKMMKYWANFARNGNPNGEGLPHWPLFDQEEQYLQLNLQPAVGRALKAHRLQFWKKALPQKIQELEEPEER
Description: Inhibition of hiCE with o-NPA as substrate, spectrophotometric assay. As to conditions: compared to the parent tanshinone. The experiment is classed as biochemical.

The target of experiment [5] is T3, hCE1 (Homo sapiens, UniProt P23141).
T3 sequence (P23141 18-563 limits assumed): T1 sequence (P23141 18-563 limits assumed)
The class given is biochemical. As to conditions: after pre-incubation and removal of the small molecule.

Experiment [6] deals with T4, hiCE (Homo sapiens, UniProt O00748).
T4 sequence (O00748 27-555 limits assumed): T2 sequence (O00748 27-555 limits assumed)
The experiment is classed as biochemical. As to conditions: after pre-incubation and removal of the small molecule.

Experiment [7] concerns U373MG cells expressing hCE1. Description: Intracellular inhibition of oseltamivir hydrolysis. The class given is cell-based, human. As to conditions: 10μM inhibitor 10 min, then oseltamivir 20μM 30 min; versus DMSO.
The target in experiment [8] is T3, hCE1. Description: MS analysis of hCE1 protein after incubation with small molecules. To be noted: for Increase in mass of hCE1 after incubation: all three enzyme species, 4 at 10μM.
For experiment [9], the target named is T1, hCE1 (human liver CE; CES1). As to conditions: read-out: hCE1 (o-NPA) Ki ± SE; parent tanshinones, previously reported; cited from earlier work.
Setting [10] is: hCE1 species of 61374 Da (first glycoform).
The mark [11] stands for this setting: hCE1 species of 61537 Da (second glycoform).
Where [12] appears, read: hCE1 species of 61698 Da (third glycoform).

hAChE, sequence (P22303 32-614): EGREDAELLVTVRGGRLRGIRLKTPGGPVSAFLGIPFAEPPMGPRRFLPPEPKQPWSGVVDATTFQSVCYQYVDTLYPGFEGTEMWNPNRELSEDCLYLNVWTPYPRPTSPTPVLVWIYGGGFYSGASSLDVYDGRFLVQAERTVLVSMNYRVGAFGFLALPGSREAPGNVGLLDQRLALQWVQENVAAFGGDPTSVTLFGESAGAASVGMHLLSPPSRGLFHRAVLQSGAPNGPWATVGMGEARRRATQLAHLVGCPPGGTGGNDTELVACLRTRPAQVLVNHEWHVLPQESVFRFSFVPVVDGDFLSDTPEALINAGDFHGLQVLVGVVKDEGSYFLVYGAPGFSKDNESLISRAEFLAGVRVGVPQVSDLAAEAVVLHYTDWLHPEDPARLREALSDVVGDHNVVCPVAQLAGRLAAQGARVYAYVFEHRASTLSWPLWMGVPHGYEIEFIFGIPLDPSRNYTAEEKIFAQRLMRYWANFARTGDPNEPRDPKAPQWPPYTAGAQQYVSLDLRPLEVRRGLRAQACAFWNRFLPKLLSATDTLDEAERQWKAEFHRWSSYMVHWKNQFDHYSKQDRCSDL
hBChE, sequence (P06276 29-602): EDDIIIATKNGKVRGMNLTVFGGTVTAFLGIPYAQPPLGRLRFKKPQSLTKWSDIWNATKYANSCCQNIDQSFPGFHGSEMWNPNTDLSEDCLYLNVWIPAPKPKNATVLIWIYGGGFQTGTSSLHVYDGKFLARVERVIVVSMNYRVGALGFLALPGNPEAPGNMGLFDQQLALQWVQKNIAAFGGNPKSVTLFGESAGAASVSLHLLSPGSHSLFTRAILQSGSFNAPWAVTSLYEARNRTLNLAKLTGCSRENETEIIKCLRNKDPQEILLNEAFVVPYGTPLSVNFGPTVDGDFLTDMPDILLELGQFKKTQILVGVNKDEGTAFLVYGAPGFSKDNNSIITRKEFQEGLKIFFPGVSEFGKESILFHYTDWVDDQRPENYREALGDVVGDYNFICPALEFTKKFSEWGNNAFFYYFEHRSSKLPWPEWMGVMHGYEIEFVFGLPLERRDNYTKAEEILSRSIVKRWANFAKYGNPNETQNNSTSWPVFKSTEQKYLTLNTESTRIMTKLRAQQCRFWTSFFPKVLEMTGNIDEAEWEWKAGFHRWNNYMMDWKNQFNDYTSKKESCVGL

In general, IC50 refers to the concentration that inhibits the measured activity by half. For orientation: inhibition means the share of the control response that was lost under treatment. `Cc1coc2c1C(=O)C(=O)c1c-2ccc2c(C)cccc12` [Compound 1, Tanshinone I]: in experiment [1], the IC50 was > 10 µM and the inhibition at 10 µM is 10%. In addition, in experiment [2], the concentration for half-maximal inhibition (IC50) is > 10 µM and the inhibition at 10 µM worked out at 6%.
For `Cc1cccc2c1ccc1c3occ(C)c3c(=O)oc(=O)c21` [Compound 2, 4,9-dimethylfuro[3,2-c]naphtho[2,1-e]oxepine-1,3-dione], the “hCE1 (o-NPA) Fold increase in potency” value in [3] is recorded as 10,937 fold. The “hiCE (o-NPA) Fold increase in potency” value in [4] is recorded as 17,744 fold. The “Irreversibility of hCE1 inhibition” value in experiment [5] is recorded as “irreversible inhibition”. Moreover, in experiment [6], the “Irreversibility of hiCE inhibition” value is recorded as “irreversible inhibition”. Also, in experiment [7], the “Reduction in oseltamivir hydrolysis (oseltamivir carboxylate formed)” value (shortened to “Reduction in oseltamivir hydrolysis”) is on record as “more than 70%”.
Consider `Cc1coc2c1C(=O)C(=O)c1c-2ccc2c1CCCC2(C)C` [Compound 3, Tanshinone IIA], for which, in [1], the IC50 was > 10 µM and the inhibition at 10 µM came to 4%. Also, in experiment [2], the IC50 is > 10 µM and the inhibition at 10 µM was 1%.
`Cc1coc2c1c(=O)oc(=O)c1c3c(ccc12)C(C)(C)CCC3` [Compound 4, 4,9,9-trimethyl-9,10,11,12-tetrahydrofuro[3,2-c]naphtho[2,1-e]oxepine-1,3-dione] had an IC50 in experiment [3] of 0.00106 µM. In addition, the “hCE1 (o-NPA) Fold increase in potency” value in experiment [3] is 3,626 fold. Moreover, the “hiCE (o-NPA) Fold increase in potency” value in experiment [4] was 1,750 fold. For the same molecule, the figures for the “Irreversibility of hCE1 inhibition” value in [5] and in [5] (listed as A) were “irreversible inhibition” and “irreversible enzyme inhibition”, respectively. In addition, the “Irreversibility of hiCE inhibition” value in experiment [6] is recorded as “irreversible inhibition”; in experiment [6] (listed as A), “irreversible enzyme inhibition”. Further, the “Reduction in oseltamivir hydrolysis” value in experiment [7] is listed as “more than 70%”. The “Increase in mass of hCE1 after incubation” value in experiment [8] is reported as 308–312 Da. The “Observed mass of adduct” value is 312 Da in experiment [8] (setting [10]), 308 Da in [8] (setting [11]) and 309.8 Da in experiment [8] (setting [12]).
In general, Ki refers to a dissociation constant, usually derived from enzyme kinetics or from competition with a known ligand. Turning to `Cc1cccc2c3c(ccc12)C1=C(C(=O)C3=O)[C@@H](C)CO1` [Compound 5, Dihydro-tanshinone], the “hAChE % Inhibition at 10μM” value in [1] (10μM inhibitor) was 84%. Besides, the IC50 is 1.95 µM in experiment [1] (read-out: hAChE IC50 ± SE, ATCh substrate) and > 10 µM in experiment [2] (read-out: hBChE IC50 ± SE, BTCh substrate). In [2] (10μM inhibitor), the “hBChE % Inhibition at 10μM” value was 5%. The inhibition constant (Ki) in experiment [9] was 0.398 ± 0.066 µM.
In the case of `Cc1cccc2c1ccc1c3c(c(=O)oc(=O)c12)[C@@H](C)CO3` [Compound 6, 4,9-dimethyl-4,5-dihydrofuro[3,2-c]naphtho[2,1-e]oxepine-1,3-dione], the “hCE1 (o-NPA) Fold increase in potency” value in [3] is given as 111 fold. Besides, the “hiCE (o-NPA) Fold increase in potency” value in experiment [4] was determined as 193 fold. Moreover, the “Irreversibility of hCE1 inhibition” value in [5] is reported as “irreversible inhibition”. In experiment [6], the “Irreversibility of hiCE inhibition” value is on record as “irreversible inhibition”. The figures for the “Observed mass of adduct” value in experiment [8] (setting [10]), in experiment [8] (setting [11]) and in experiment [8] (setting [12]) were 288 Da, 289 Da and 282 Da, respectively.
`C[C@H]1COC2=C1C(=O)C(=O)c1c2ccc2c1CCCC2(C)C` [Compound 7, Crypto-tanshinone]: the figures for the IC50 in experiment [1] and in experiment [2] were 6.41 µM and > 10 µM, respectively. Further, the figures for the inhibition at 10 µM in experiment [1] and in experiment [2] were 44% and 1%, respectively.
In the case of `C[C@H]1COc2c1c(=O)oc(=O)c1c3c(ccc21)C(C)(C)CCC3` [Compound 8, 4,9,9-trimethyl-4,5,9,10,11,12-hexahydrofuro[3,2-c]naphtho[2,1-e]oxepine-1,3-dione], the IC50 in experiment [3] is 0.00133 µM. In addition, the “hCE1 (o-NPA) Fold increase in potency” value in experiment [3] came out at 194 fold. In addition, in experiment [4], the “hiCE (o-NPA) Fold increase in potency” value was found to be 188 fold. The entries for the “Irreversibility of hCE1 inhibition” value in experiment [5] and in experiment [5] (listed as B) were “irreversible inhibition” and “irreversible enzyme inhibition”, respectively. The “Irreversibility of hiCE inhibition” value is reported as “irreversible inhibition” in experiment [6] and “irreversible enzyme inhibition” in experiment [6] (listed as B). Besides, the “Reduction in oseltamivir hydrolysis” value in [7] is recorded as “more than 70%”.
Consider `O=S(=O)(F)Cc1ccccc1` [PMSF, phenylmethanesulfonyl fluoride, reference compound], for which, in [8], the “Increase in mass of hCE1 after incubation” value was 154–157 Da.
